Consider 6 compounds from patent publication US20130281512A1, “AGENTS FOR TREATING DISORDERS INVOLVING MODULATION OF RYANODINE RECEPTORS” (LES LABORATOIRES SERVIER, priority 2012, published 2013).

The structures appear in SMILES notation.

Data set [1] has as its system ischemia-reperfusion induced heart failure. The data set is described as follows: Model of chronic post-ischemic heart failure in rat (ischemia-reperfusion injury). The class given is in vivo. As to conditions: 5 mg/kg/d in drinking water, 3 months. The procedure: Chronic heart failure was induced in male wistar rats (224-240 g, 10-11 weeks of age) by ischemia-reperfusion (I/R) injury. For I/R protocol, the left anterior descending (LAD) coronary artery was occluded for 1 h. Drug treatment (5 mg/kg/d or 10 mg/kg/d in drinking water) was initiated 1 week after reperfusion and was maintained for a 3 month study period. […] Cardiac specimens were also analyzed to assess hypertrophy and collagen content. The study design is depicted in FIG. 3. Experiments were performed in a blinded manner. On parameters measured over time, comparison of Sham versus Vehicle and comparison of drug treatments are analyzed by 2 way ANOVAs with repeated measures. On parameters measured at sacrifice and morphometry, comparisons of Sham versus Vehicle are analyzed by t-test and comparisons of drug treatments by 1-way ANOVA followed by Dunnett test.

The nature of data set [2]: Metabolic stability in rat hepatic microsomes (Clint, predicted MF %). Type of data set: in vitro ADME. The following applies: for Clint_mic rat (in vitro intrinsic clearance): 10^-7 M, 0.33 mg protein/ml, NADPH; for MF mic % (metabolic bioavailability): predicted from Clint assuming total absorption. How it is done:
(§1) Compound solubilization: Stock solutions were made in DMSO, and working solutions in water containing 1 mg/ml BSA.
(§2) Prediction of metabolic bioavailability: Metabolic bioavailability predictions (MF %) were based on in vitro metabolic stability measurements with hepatic microsomes assuming total absorption. Briefly, unchanged drugs were quantified by LC-MS-MS following incubation (10^−7M) with rat and human hepatic microsomes (0.33 mg protein/ml) after 0, 5, 15, 30 and 60 min of incubation in presence of NADPH (1 mM). Enzymatic reaction was stopped with methanol (v/v) and proteins were precipitated by centrifugation. The in vitro intrinsic clearances (Clint_mic) expressed as ml/min/g protein were the slope (after LN linearization) of the unchanged drug remaining concentration versus incubation time. In vitro Clint were then scaled up to in vivo whole body (vivoClint) using 0.045 mg prot/kg of liver and liver weight of 11 g for the rat and 1.2 kg for Man.

Data set [3] is described as follows: Metabolic stability in human hepatic microsomes (Clint, predicted MF %). The class given is in vitro ADME. As to conditions: for Clint_mic man (in vitro intrinsic clearance): 10^-7 M, 0.33 mg protein/ml, NADPH; for MF mic % (metabolic bioavailability): predicted from Clint assuming total absorption. The procedure:
as §1, §2

A further data set has as its system rat hepatocytes. The data set is described as follows: Metabolic stability in rat hepatocytes. Type of data set: in vitro ADME. As to conditions: for Clint: 6.00E+05 cells/ml, 10^-7 M. How it is done: (§3) Compound solubilization: Stock solutions were made in DMSO, and working solutions in William medium containing 1/10 rat plasma or 1/4 human plasma.
(§4) Metabolic stability determination: Compounds were incubated at 10^−7 M with isolated hepatocytes (6E+5 cells/ml for rat hepatocytes and 4E+5 cells/ml for human hepatocytes) at 37° C. in plasma from the same species diluted in Wiliams medium (1/10 dilution for rat and 1/4 dilution for human). Sampling times were performed at 0, 10, 20, 30, 60 and 120 min and enzymatic reaction stopped with methanol (v/v). Proteins were precipitated by centrifugation and the supernatant was analyzed by LC/MS/MS. Clint expressed as ml/min/g protein were calculated as for hepatic microsomes using a ratio of 0.134 mg protein/ml for 4E+5 cells/ml for human and 0.201 mg protein/ml for 6E+5 cells/ml for rat. The presence of the reference drug and the potential metabolite was checked by LC/MS/MS during the assay in each sample.

For the next data set, the system named is human hepatocytes. The data set is described as follows: Metabolic stability in human hepatocytes. Type of data set: in vitro ADME. The following applies: for Clint: 4.00E+05 cells/ml, 10^-7 M. How it is done:
as §3, §4

The nature of data set [4]: Metabolic stability in rat microsomes (% remaining). Type of data set: in vitro ADME. How it is done: (§5) 0.1M Tris HCl buffer at pH 7.4 containing 5 mM EDTA.
(§6) To a 50 mL falcon tube containing 2.79 mL of dilution buffer were added 0.429 mL of NADPH-regenerating soln. A and 0.079 mL of NADPH-regenerating soln. B […]
(§7) […] A 50 mL falcon tube containing 3.32 mL of dilution buffer was prewarmed at 37° C. for 15 min. (at least 10 min.) 0.178 mL of microsome (24.6 mg/mL) were added to the prewarmed dilution buffer. The protein concentration of this microsome preparation was 1.25 mg/mL.
(§8) Sample (Test Compound)—Original and Intermediate Stock Solutions:
(§9) 100 μM intermediate solution of the test compound from the original stock solution were prepared using the dilution buffer. A 5 μM solution was prepared by diluting the 100 μM intermediate solution using dilution buffer.
(§10) (The experiments were conducted in 1.5 mL eppendorf micro centrifuge tubes) 0 minutes incubation. Procedure: a. Add 100 μL of prewarmed microsomes b. Add 50 μL of 5 μM solution of the test compound. c. Add 500 μL of cold stop solution (ice cold Methanol) d. Add 100 μL of NADPH cofactor solution to the eppendorf. a. Vortex mix the eppendorf. […]
(§11) b. Add 100 μL of NADPH cofactor solution to the eppendorf. c. Add 50 μL of 5 μM solution of the test compound. d. Add 100 μL of prewarmed microsomes e. Incubate the eppendorf at 37° C. 300 rpm for ‘t’ min. on a thermomixer. f. Remove the eppendorf from thermomixer g. Add 500 μL of cold stop solution (ice cold Methanol) h. Vortex mix the eppendorf.
(§12) Both the ‘0’ and ‘t’ minutes incubated samples were centrifuged at 15, 000 rcf at 4° C. for 15 min. 500 μL of the supernatant solution was removed and subject it to LC/MS analysis (SIM—Selected Ion Monitoring) […]
(§13) Results are expressed as % test compound remaining=(MS Area response of T min sample/MS Area response of ‘0’ min sample)*100. The MS area used is an average of duplicate injections.
(§14) Time points=0, 15, 30 and 60 min. for each test compound
(§15) 2 μM Imipramine—5 min. and 2 μM Imipramine—15 min. incubation was used as a positive control for the rat and mouse liver microsome stability experiments.

Data set [5] in a line: Metabolic stability in mouse microsomes (% remaining). The class given is in vitro ADME. How it is done:
as §5, §6, §7, §8, §9, §10, §11, §12, §13, §14, §15

The next data set addresses T1, PKA-phosphorylated RyR2 (Homo sapiens, UniProt Q92736).
T1 construct: Cardiac SR membranes were prepared as previously described; from tissue; host or cells: cardiac sarcoplasmic reticulum (heart muscle microsomes)
As to the kind of experiment: Calstabin2 rebinding assay: binding of calstabin2 to PKA-phosphorylated RyR2 (cardiac SR, immunoblot). The following applies: 100 nM compound; immunoblot with calstabin2 antibody. How it is done:
Cardiac SR membranes were prepared as previously described (Marx et al., 2000; Kaftan et al., Circ. Res., 1996, 78:990-97). Immunoblotting of microsomes (50 μg) was performed as described, with anti-calstabin antibody (1:1,000) (Jayaraman et al., J. Biol. Chem., 1992, 267:9474-77) for 1 hr at room temperature (Reiken et al., Circulation, 107:2459-66, 2003). After incubation with HRP-labeled anti-rabbit IgG (1:5,000 dilution; Transduction Laboratories, Lexington, Ky.), the blots were developed using ECL (Amersham Pharmacia, Piscataway, N.J.) and detected on x-ray film, or exposed to secondary antibodies labeled with infrared Dye and visualized on equipment from Li-Cor Biosciences (model Odyssey). Unless otherwise stated, compounds were tested at a concentration of 100 nM. A representative calstabin2 binding assay is presented below.
A. PKA phosphorylation of cardiac sarcoplasmic reticulum (CSR)
B. Reaction mixture was set up in 1.5 ml microfuge tube. 200 μg of cardiac SR were added to a reaction mix of kinase buffer, PKA and ATP to a final volume of 100 (Reaction mix below). ATP was added last to initiate the reaction.
20 μl Sample (cardiac SR, 2 or 10 μg/μl) 10 μl=10× Kinase buffer (80 mM MgCl2, 100 mM EGTA, 500 mM Tris/PIPES), pH=7.0
20 μl PKA (2units/ul) (Sigma # P2645)
40 μl=distilled H2O • 1. The tubes were incubated at 30° C. for 30 minutes. • 2. The reaction mix was then transferred to 0.5 ml thick walled glass tubes. • 3. The glass tubes containing the reaction mix were centrifuged for 10 min at 50,000×g in Sorvall Centrifuge RCM120EX using S120AT3 rotor. Centrifugation at 50,000×g for 10 min is sufficient to isolate the microsomes. • 4. The resulting pellet was washed 4 times with binding buffer (10 mM Imidazol 300 mM Sucrose, pH=7.4). Each time 100111 of 1× binding buffer was added to the tube to wash the pellet. The pellet was resuspended by flushing up and down using the pipette tip. After the last spin 501.11 of binding buffer was added and the pellets from all tubes were pooled. The reaction was stored at −20° C. • 5. Phosphorylation was confirmed by separating approximately 10 μg of CSR by 6% Polyacylamide gel electrophoresis (PAGE) and analyzing the immunoblots for both total RyR (5029 Ab, 1:3000 dilution or Monoclonal Ab from Affinity Bioreagents, Cat # MA3-916, 1:2000 dilution) and PKA phosphorylated RyR2 (P2809 Ab, 1:10000 dilution). • 6. Aliquots can be stored at −80 C.
C. Calstabin Rebinding Assay
• 1. PKA-phosphorylated CSR (approximately 20 μg) was incubated with 250 nM Calstabin 2 in 100111 binding buffer (as described above) with or without compounds. • 2. […] Calstabin2 binding was detected with anti-FKBP (Jayaraman et al., J. Biol. Chem. 1992; 267:9474-77, 1:2000) primary antibody and appropriate secondary antibody.

The target of a further data set is PKA-phosphorylated RyR1 (Homo sapiens, UniProt P21817). The data set is described as follows: biochemical. The procedure: Immunoblotting of microsomes (50 μg) was performed as described, with anti-calstabin1 antibody (Zymed) (1:1,000). The blots were developed and quantified as described in Example 2.

T1 sequence (Q92736 whole entry): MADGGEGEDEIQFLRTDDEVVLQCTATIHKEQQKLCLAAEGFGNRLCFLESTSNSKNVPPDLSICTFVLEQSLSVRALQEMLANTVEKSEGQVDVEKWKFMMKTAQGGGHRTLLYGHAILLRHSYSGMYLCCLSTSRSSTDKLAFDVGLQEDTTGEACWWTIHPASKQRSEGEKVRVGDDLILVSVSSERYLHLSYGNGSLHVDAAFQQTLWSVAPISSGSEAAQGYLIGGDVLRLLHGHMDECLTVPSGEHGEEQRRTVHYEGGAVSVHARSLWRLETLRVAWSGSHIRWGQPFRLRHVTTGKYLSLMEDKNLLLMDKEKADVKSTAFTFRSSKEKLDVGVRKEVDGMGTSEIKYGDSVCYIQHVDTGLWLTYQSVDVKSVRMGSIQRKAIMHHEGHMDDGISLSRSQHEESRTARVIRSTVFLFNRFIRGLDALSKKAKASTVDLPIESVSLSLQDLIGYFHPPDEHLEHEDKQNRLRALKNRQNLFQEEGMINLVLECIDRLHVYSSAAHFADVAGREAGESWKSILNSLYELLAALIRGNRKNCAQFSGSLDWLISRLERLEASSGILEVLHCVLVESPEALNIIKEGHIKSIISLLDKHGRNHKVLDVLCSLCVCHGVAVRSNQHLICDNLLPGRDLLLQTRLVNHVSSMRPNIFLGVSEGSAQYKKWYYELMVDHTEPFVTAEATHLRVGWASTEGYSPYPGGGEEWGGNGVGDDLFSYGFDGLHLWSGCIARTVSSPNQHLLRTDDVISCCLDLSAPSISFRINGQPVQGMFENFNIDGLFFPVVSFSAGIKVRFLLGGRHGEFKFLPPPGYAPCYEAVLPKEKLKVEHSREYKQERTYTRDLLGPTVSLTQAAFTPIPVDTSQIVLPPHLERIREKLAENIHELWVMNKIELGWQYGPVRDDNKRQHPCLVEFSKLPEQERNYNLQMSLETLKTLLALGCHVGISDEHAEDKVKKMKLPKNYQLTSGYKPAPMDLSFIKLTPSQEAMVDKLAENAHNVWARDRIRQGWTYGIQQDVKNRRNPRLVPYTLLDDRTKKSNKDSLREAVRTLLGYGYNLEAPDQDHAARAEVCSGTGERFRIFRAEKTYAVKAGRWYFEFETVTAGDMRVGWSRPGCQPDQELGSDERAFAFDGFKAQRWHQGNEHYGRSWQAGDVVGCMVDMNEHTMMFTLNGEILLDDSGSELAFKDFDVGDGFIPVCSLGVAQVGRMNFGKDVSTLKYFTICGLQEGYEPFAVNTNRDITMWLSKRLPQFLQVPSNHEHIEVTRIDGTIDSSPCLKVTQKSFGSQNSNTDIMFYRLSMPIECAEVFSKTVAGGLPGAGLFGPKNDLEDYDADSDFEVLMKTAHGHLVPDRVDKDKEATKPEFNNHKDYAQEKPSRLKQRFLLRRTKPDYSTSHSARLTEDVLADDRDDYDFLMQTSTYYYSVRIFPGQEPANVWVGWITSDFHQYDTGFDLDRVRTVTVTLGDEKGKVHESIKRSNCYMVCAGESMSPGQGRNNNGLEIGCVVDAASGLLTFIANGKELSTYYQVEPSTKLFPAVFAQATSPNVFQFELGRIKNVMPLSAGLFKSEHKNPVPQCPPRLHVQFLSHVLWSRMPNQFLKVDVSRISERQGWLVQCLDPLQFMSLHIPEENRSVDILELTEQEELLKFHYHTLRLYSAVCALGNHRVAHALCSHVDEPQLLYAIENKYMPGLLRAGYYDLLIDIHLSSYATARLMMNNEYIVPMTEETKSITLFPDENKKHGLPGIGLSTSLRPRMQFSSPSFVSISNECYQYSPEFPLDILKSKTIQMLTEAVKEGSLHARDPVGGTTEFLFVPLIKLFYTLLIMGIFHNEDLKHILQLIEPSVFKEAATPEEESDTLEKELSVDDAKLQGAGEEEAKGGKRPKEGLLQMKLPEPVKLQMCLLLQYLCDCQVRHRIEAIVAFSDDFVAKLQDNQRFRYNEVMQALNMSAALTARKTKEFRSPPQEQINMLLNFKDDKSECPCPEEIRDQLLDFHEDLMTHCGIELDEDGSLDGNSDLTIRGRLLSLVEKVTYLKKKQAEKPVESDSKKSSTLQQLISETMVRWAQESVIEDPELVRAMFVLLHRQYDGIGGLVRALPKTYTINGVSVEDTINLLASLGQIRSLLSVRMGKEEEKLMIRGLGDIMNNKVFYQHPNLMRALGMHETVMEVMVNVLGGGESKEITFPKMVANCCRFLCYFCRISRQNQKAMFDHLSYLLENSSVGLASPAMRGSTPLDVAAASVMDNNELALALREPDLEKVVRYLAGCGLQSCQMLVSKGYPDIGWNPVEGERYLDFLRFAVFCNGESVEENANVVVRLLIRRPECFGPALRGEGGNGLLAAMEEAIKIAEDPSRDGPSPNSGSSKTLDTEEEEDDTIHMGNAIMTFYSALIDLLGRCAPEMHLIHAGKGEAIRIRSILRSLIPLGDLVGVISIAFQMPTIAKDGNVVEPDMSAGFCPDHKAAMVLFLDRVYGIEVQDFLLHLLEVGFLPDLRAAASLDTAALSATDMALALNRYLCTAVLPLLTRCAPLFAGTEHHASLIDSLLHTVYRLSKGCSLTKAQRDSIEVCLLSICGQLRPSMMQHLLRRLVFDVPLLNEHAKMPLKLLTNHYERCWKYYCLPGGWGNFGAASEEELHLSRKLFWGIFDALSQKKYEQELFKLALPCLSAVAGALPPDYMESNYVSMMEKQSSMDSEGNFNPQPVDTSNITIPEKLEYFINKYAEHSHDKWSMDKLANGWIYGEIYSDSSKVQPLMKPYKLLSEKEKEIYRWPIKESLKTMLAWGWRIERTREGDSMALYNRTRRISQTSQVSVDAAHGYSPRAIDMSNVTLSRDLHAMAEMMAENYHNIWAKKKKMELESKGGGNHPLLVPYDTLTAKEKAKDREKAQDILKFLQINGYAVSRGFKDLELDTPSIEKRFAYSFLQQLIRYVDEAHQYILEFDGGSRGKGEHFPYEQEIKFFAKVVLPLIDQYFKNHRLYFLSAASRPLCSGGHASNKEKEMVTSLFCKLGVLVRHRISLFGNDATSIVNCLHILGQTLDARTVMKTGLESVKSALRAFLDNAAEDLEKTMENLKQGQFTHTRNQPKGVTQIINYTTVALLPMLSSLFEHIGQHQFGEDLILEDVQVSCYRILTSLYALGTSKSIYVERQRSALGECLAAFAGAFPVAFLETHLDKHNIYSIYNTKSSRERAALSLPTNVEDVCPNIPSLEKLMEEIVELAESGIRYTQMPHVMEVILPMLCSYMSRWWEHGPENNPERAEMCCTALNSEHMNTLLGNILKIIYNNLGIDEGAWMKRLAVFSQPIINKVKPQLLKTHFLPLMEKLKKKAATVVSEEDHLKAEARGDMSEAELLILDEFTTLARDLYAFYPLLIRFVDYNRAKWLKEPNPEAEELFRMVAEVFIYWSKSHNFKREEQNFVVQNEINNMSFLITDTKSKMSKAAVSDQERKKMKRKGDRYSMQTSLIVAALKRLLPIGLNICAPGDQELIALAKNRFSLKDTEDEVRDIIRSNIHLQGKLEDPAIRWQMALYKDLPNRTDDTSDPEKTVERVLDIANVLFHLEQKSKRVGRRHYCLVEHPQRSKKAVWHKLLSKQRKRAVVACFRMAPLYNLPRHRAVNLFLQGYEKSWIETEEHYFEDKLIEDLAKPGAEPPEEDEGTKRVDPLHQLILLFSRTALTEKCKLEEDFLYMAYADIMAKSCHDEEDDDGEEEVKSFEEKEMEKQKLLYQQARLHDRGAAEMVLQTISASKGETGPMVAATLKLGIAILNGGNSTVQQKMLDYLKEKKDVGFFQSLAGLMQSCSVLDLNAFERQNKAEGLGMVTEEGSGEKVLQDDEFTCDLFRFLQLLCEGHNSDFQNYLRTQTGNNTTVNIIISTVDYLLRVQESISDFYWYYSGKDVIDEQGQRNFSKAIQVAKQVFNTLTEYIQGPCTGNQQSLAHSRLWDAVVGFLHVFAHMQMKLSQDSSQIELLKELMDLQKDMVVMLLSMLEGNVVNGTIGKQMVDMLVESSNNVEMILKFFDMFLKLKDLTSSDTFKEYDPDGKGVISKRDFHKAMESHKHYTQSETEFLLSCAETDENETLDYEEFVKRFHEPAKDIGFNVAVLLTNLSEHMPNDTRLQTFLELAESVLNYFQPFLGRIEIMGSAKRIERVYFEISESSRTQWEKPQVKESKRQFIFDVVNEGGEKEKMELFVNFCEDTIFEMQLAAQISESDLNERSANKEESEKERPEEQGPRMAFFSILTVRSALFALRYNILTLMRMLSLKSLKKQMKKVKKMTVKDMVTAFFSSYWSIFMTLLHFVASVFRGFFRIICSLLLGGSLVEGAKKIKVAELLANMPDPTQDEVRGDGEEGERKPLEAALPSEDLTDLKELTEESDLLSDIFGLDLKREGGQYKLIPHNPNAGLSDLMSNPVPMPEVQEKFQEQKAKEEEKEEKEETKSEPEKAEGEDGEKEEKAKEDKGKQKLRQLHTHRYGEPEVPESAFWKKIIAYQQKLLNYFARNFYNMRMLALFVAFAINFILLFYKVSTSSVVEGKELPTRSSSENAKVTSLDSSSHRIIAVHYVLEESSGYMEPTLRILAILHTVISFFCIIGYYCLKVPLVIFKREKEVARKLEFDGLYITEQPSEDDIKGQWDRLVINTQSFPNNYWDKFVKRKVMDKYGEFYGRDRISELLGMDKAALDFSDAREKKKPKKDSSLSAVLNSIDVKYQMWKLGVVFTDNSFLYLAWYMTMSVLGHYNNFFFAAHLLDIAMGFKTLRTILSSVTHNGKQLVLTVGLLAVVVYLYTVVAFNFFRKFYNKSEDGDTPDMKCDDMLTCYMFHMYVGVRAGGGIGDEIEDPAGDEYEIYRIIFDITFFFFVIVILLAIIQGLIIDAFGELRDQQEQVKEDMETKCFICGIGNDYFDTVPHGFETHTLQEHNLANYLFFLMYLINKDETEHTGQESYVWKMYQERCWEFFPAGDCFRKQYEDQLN
T1 sequence (P68106 whole entry partner): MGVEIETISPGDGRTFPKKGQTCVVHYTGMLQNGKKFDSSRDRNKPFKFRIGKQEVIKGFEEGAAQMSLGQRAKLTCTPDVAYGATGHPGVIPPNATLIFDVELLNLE

In the case of `COc1ccc2c(c1)CN(CC(=O)O)CCS2` [A], the “systolic and diastolic cardiac function” value in data set [1] was “failed to improve”.

Regarding `COc1ccc2c(c1)CN(Cc1ccc(O)cc1)CCS2` [B], the “Class (metabolic bioavailability)” value in data set [2] and in data set [3] was “very low” each time. Also, the “Clint_mic rat (in vitro intrinsic clearance)” value in data set [2] is on record as 823 ml/min/gprot. Moreover, the entries for the “MF mic % (metabolic bioavailability)” value in data set [2] and in data set [3] were 5% and 6%, respectively. The “Clint_mic man (in vitro intrinsic clearance)” value in data set [3] is recorded as 285 ml/min/gprot. The MF rat % in the data set on rat hepatocytes is listed as 3%. In addition, the Clint in the data set on rat hepatocytes worked out at 1334 ml/min/gprot; with human hepatocytes it was 693 ml/min/gprot. The MF human % in the data set with human hepatocytes came out at 3%. Besides, the “% remaining” value is on record as 1% in data set [4] (15 min); 0% in data set [4] (30 min); 0% in [4] (1 h); 0% in data set [5] (15 min); 0% in data set [5] (30 min); 0% in data set [5] (1 h).

As for `COC(=O)c1cccc(CN2CCSc3ccc(OC)cc3C2)c1` [Compound 2, Methyl 3-((7-methoxy-2,3-dihydrobenzo[f][1,4]thiazepin-4(5H)-yl)methyl)benzoate], the “binding of calstabin2 to PKA-phosphorylated RyR2” value (“binding of calstabin2” below) at PKA-phosphorylated RyR2 is recorded as “prevent dissociation of calstabin2 from PKA-phosphorylated RyR2, and/or enhance the (re)binding of calstabin2 to PKA-phosphorylated RyR2”.

As for `COC(=O)c1ccc(CN2CCSc3ccc(OC)cc3C2)cc1` [Compound 3, Methyl 4-((7-methoxy-2,3-dihydrobenzo[f][1,4]thiazepin-4(5H)-yl)methyl)benzoate], the “binding of calstabin2” value at PKA-phosphorylated RyR2 is “prevent dissociation of calstabin2 from PKA-phosphorylated RyR2, and/or enhance the (re)binding of calstabin2 to PKA-phosphorylated RyR2”.

As for `COc1ccc2c(c1)CN(Cc1cccc(C(=O)O)c1)CCS2` [Compound 4, 3-((7-Methoxy-2,3-dihydrobenzo[f][1,4]thiazepin-4(5H)-yl)methyl)benzoic acid], the “binding of calstabin2” value at PKA-phosphorylated RyR2 is on record as “prevent dissociation of calstabin2 from PKA-phosphorylated RyR2, and/or enhance the (re)binding of calstabin2 to PKA-phosphorylated RyR2”. The compound further yielded a concentration giving a half-maximal response (EC50) on PKA-phosphorylated RyR1 of around 150 nM. Besides, on PKA-phosphorylated RyR1 (indicated concentrations, immunoblot with calstabin1 antibody), the “binding of calstabin1 to PKA phosphorylated RyR1” value is on record as “prevented the dissociation of calstabin1 from PKA phosphorylated RyR1 and/or enhanced the (re)binding of calstabin1 to PKA-phosphorylated RyR1 in a dose-dependent manner”.

Take `COc1ccc2c(c1)CN(Cc1ccccc1)CCS2` [Compound C]: the “Class (metabolic bioavailability)” value in data set [2] and in data set [3] was “very low” each time. Also, in data set [2], the “Clint_mic rat (in vitro intrinsic clearance)” value is 1926 ml/min/gprot. Besides, the “MF mic % (metabolic bioavailability)” value in data set [2] and in [3] was 2% each time. In addition, the “Clint_mic man (in vitro intrinsic clearance)” value in data set [3] is listed as 1326 ml/min/gprot. Also, in the data set with rat hepatocytes, the MF rat % is listed as 2%. The values for the Clint in the data set with rat hepatocytes and in the data set on human hepatocytes were 2610 ml/min/gprot and 100 ml/min/gprot, respectively. The MF human % in the data set on human hepatocytes turned out to be 16%. Besides, the “% remaining” value in data set [4] (15 min), in data set [4] (30 min), in [4] (1 h), in data set [5] (15 min), in data set [5] (30 min) and in data set [5] (1 h) was 0% throughout.
